Data: US20250129069A1, “TRIAZOLO WRN INHIBITORS” (Nimbus Wadjet, Inc., priority 2023, published 2025)
pEC50, pIC50: −log10 of the molar value. Where two headings read alike, the source gives them in different places.

What was measured:
[1] = tested on: p21 induction in HCT 116 cells; assay: p21 induction in cells (In-Cell Western, p21/GAPDH ratio); type: cell-based; conditions: 24 h compound incubation, read-out: p21_EC50
Procedure, shortened: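 EC50 values come from nonlinear fits of percent activation, defined by the 800/700 nm p21-to-GAPDH ratio scaled between DMSO (low) and internal WRN inhibitor (high) controls. In-Cell Western read after 24 h compound exposure of HCT 116 cells at 37° C. Duplicate 11-point series, 2-fold steps, usually starting at 10 μM.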

[2] = biological target: human Werner helicase (WRN, amino acids 517-1235 with L1074F point mutation) (Homo sapiens (Human), UniProt Q14191, L1074F); assay: WRN (BV08) ADP-Glo assay; type: biochemical; conditions: human WRN (aa 517-1235, L1074F), read-out: ADP-Glo_hWRN_IC50
human Werner helicase (WRN, amino acids 517-1235 with L1074F point mutation), sequence (Q14191 other isoform, or with tags, fused parts or gaps L1074F (already in the parent)): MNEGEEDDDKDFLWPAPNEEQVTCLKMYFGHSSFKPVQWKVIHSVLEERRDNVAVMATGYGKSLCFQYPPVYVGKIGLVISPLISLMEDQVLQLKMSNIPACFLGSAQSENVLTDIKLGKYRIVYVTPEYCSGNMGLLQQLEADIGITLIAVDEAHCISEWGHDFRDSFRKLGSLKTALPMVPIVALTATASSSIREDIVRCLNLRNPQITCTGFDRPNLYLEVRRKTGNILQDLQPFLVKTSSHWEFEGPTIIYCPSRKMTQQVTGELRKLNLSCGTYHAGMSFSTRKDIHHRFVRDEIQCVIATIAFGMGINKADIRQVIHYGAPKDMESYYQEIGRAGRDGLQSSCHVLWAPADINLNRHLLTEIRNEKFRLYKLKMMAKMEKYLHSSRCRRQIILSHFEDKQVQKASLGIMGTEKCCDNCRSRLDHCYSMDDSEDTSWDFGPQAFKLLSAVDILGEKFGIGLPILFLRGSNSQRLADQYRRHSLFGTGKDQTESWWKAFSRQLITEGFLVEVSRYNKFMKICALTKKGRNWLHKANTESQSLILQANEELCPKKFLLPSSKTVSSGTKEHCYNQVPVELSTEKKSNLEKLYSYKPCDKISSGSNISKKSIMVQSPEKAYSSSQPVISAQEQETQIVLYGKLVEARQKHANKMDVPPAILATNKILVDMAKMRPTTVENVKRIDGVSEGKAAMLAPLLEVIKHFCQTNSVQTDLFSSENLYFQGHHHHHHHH
Procedure, shortened: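 ADP-Glo luminescence read after 60 min, 25 °C reaction of 0.15 nM WRN (517-1235, L1074F, Sf9-expressed, tag removed) with 0.1 nM DNA duplex and 5 μM ATP, following 15 min compound preincubation; 20 mM Bicine pH 7.5, 1% DMSO. IC50 from 3- or 4-parameter fit of % inhibition.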

pEC50 ([1]; Homo sapiens) | pIC50 [2] | pEC50 [1] | SMILES
5.70 to 6.30 | 7.30 to 8.30 | – | CCc1c(N2CCN(C(=O)c3c(OC)ncc(C4CC4)c3O)CC2)c(=O)c2nn(-c3ccnc(OC)c3)nc2n1CC(=O)NC12CC(C(C)C)(C1)C2 [Compound I-65, 2-{6-[4-(5-cyclopropyl-4-hydroxy-2-methoxypyridine-3-carbonyl)piperazin-1-yl]-5-ethyl-2-(2-methoxypyridin-4-yl)-7-oxo-2H,4H,7H-[1,2,3]triazolo[4,5-b]pyridin-4-yl}-N-[3-(propan-2-yl)bicyclo[1.1.1]pentan-1-yl]acetamide]
≥ 6.30 | 7.30 to 8.30 | – | CCc1c(N2CCN(C(=O)c3ncnc(C)c3O)[C@H]3CC[C@@H]32)c(=O)c2nn(-c3ccnc(OC)c3)nc2n1CC(=O)NC1CCC2(CCC2)C1 (stereo partly drawn) [Compound I-66, 2-{5-ethyl-6-[(1S,6S)-5-(5-hydroxy-6-methylpyrimidine-4-carbonyl)-2,5-diazabicyclo[4.2.0]octan-2-yl]-2-(2-methoxypyridin-4-yl)-7-oxo-2H,4H,7H-[1,2,3]triazolo[4,5-b]pyridin-4-yl}-N-{spiro[3.4]octan-6-yl}acetamide]
< 5.30 | 7.30 to 8.30 | – | CCc1c(N2CCN(C(=O)c3ncnc(C)c3O)[C@H]3CC[C@@H]32)c(=O)c2nn(-c3ccnc(OC)c3)nc2n1CC(=O)NC1CCC2(CC1)CC2(F)F (stereo partly drawn) [Compound I-67, N-{1,1-difluorospiro[2.5]octan-6-yl}-2-{5-ethyl-6-[(1S,6S)-5-(5-hydroxy-6-methylpyrimidine-4-carbonyl)-2,5-diazabicyclo[4.2.0]octan-2-yl]-2-(2-methoxypyridin-4-yl)-7-oxo-2H,4H,7H-[1,2,3]triazolo[4,5-b]pyridin-4-yl}acetamide]
< 5.30 | 7.30 to 8.30 | – | CCc1c(N2CCN(C(=O)c3ncnc(C)c3O)[C@H]3CC[C@@H]32)c(=O)c2nn(-c3ccnc(OC)c3)nc2n1CC(=O)NC1CC2(CCC(F)(F)CC2)C1 [Compound I-68, N-{7,7-difluorospiro[3.5]nonan-2-yl}-2-{5-ethyl-6-[(1S,6S)-5-(5-hydroxy-6-methylpyrimidine-4-carbonyl)-2,5-diazabicyclo[4.2.0]octan-2-yl]-2-(2-methoxypyridin-4-yl)-7-oxo-2H,4H,7H-[1,2,3]triazolo[4,5-b]pyridin-4-yl}acetamide]
5.70 to 6.30 | 7.30 to 8.30 | – | CCc1c(N2CCN(C(=O)c3ncnc(C)c3O)[C@H]3CC[C@@H]32)c(=O)c2nn(-c3ccnc(OC)c3)nc2n1CC(=O)NC1CC2(C1)CC2F (stereo partly drawn) [Compound I-69, 2-{5-ethyl-6-[(1S,6S)-5-(5-hydroxy-6-methylpyrimidine-4-carbonyl)-2,5-diazabicyclo[4.2.0]octan-2-yl]-2-(2-methoxypyridin-4-yl)-7-oxo-2H,4H,7H-[1,2,3]triazolo[4,5-b]pyridin-4-yl}-N-{1-fluorospiro[2.3]hexan-5-yl}acetamide]
5.70 to 6.30 | 7.30 to 8.30 | – | CCc1c(N2CCN(C(=O)c3ncnc(C)c3O)[C@H]3CC[C@@H]32)c(=O)c2nn(-c3ccnc(OC)c3)nc2n1CC(=O)NC1CC2(C1)CC(F)(F)C2 [Compound I-70, N-{6,6-difluorospiro[3.3]heptan-2-yl}-2-{5-ethyl-6-[(1S,6S)-5-(5-hydroxy-6-methylpyrimidine-4-carbonyl)-2,5-diazabicyclo[4.2.0]octan-2-yl]-2-(2-methoxypyridin-4-yl)-7-oxo-2H,4H,7H-[1,2,3]triazolo[4,5-b]pyridin-4-yl}acetamide]
< 5.30 | 6.30 to 7.00 | – | CCc1c(N2CCN(C(=O)c3ncnc(C)c3O)[C@H]3CC[C@@H]32)c(=O)c2nn(-c3ccnc(OC)c3)nc2n1CC(=O)NC1CC2(CCC2)C1OC (stereo partly drawn) [Compound I-71, 2-{5-ethyl-6-[(1S,6S)-5-(5-hydroxy-6-methylpyrimidine-4-carbonyl)-2,5-diazabicyclo[4.2.0]octan-2-yl]-2-(2-methoxypyridin-4-yl)-7-oxo-2H,4H,7H-[1,2,3]triazolo[4,5-b]pyridin-4-yl}-N-{1-methoxyspiro[3.3]heptan-2-yl}acetamide]
5.30 to 5.70 | 7.30 to 8.30 | – | CCc1c(N2CCN(C(=O)c3ncnc(C)c3O)[C@H]3CC[C@@H]32)c(=O)c2nn(-c3ccnc(OC)c3)nc2n1CC(=O)NC1CC2(C1)CC(C)(C)C2 [Compound I-72, N-{6,6-dimethylspiro[3.3]heptan-2-yl}-2-{5-ethyl-6-[(1S,6S)-5-(5-hydroxy-6-methylpyrimidine-4-carbonyl)-2,5-diazabicyclo[4.2.0]octan-2-yl]-2-(2-methoxypyridin-4-yl)-7-oxo-2H,4H,7H-[1,2,3]triazolo[4,5-b]pyridin-4-yl}acetamide]
≥ 6.30 | 7.30 to 8.30 | – | CCc1c(N2CCN(C(=O)c3c(OC)ncc(C)c3O)[C@H]3CC[C@@H]32)c(=O)c2nn(-c3ccnc(C)c3)nc2n1CC(=O)NC12CC(C3CC3)(C1)C2 [Compound I-74, N-{3-cyclopropylbicyclo[1.1.1]pentan-1-yl}-2-{5-ethyl-6-[(1S,6S)-5-(4-hydroxy-2-methoxy-5-methylpyridine-3-carbonyl)-2,5-diazabicyclo[4.2.0]octan-2-yl]-2-(2-methylpyridin-4-yl)-7-oxo-2H,4H,7H-[1,2,3]triazolo[4,5-b]pyridin-4-yl}acetamide]
5.70 to 6.30 | 7.30 to 8.30 | – | CCc1c(N2CCN(C(=O)c3c(OC)ncc(C4CCOC4)c3O)CC2)c(=O)c2nn(-c3ccnc(OC)c3)nc2n1CC(=O)NC12CC(C(C)C)(C1)C2 (centres unmarked) [Compound I-75, 2-(5-ethyl-6-{4-[4-hydroxy-2-methoxy-5-(oxolan-3-yl)pyridine-3-carbonyl]piperazin-1-yl}-2-(2-methoxypyridin-4-yl)-7-oxo-2H,4H,7H-[1,2,3]triazolo[4,5-b]pyridin-4-yl)-N-[3-(propan-2-yl)bicyclo[1.1.1]pentan-1-yl]acetamide]
5.30 to 5.70 | 7.30 to 8.30 | – | CCc1c(C2=C(C)CN(C(=O)c3ncnc(C)c3O)CC2)c(=O)c2nn(-c3ccnc(OC)c3)nc2n1CC(=O)NC12CC(C(C)C)(C1)C2 [Compound I-78, 2-{5-ethyl-6-[1-(5-hydroxy-6-methylpyrimidine-4-carbonyl)-5-methyl-1,2,3,6-tetrahydropyridin-4-yl]-2-(2-methoxypyridin-4-yl)-7-oxo-2H,4H,7H-[1,2,3]triazolo[4,5-b]pyridin-4-yl}-N-[3-(propan-2-yl)bicyclo[1.1.1]pentan-1-yl]acetamide]
5.70 to 6.30 | 7.30 to 8.30 | – | CCc1c(C2=CCN(C(=O)c3ncnc(C)c3O)CC2)c(=O)c2nn(-c3ccnc(OC)c3)nc2n1CC(=O)NC12CC(C(C)C)(C1)C2 [Compound I-79, 2-{5-ethyl-6-[1-(5-hydroxy-6-methylpyrimidine-4-carbonyl)-1,2,3,6-tetrahydropyridin-4-yl]-2-(2-methoxypyridin-4-yl)-7-oxo-2H,4H,7H-[1,2,3]triazolo[4,5-b]pyridin-4-yl}-N-[3-(propan-2-yl)bicyclo[1.1.1]pentan-1-yl]acetamide]
≥ 6.30 | ≥ 8.30 | – | CCc1c(N2CCN(C(=O)c3ncnc(C)c3O)[C@H]3CC[C@@H]32)c(=O)c2nn(-c3ccnc(OC)c3)nc2n1CC(=O)Nc1ccc(C(F)F)cc1Cl [Compound I-82, N-[2-chloro-4-(difluoromethyl)phenyl]-2-{5-ethyl-6-[(1S,6S)-5-(5-hydroxy-6-methylpyrimidine-4-carbonyl)-2,5-diazabicyclo[4.2.0]octan-2-yl]-2-(2-methoxypyridin-4-yl)-7-oxo-2H,4H,7H-[1,2,3]triazolo[4,5-b]pyridin-4-yl}acetamide]
≥ 6.30 | ≥ 8.30 | – | CCc1c(N2CCN(C(=O)c3ncnc(C)c3O)[C@H]3CC[C@@H]32)c(=O)c2nn(-c3ccnc(OC)c3)nc2n1CC(=O)Nc1ccc(C(F)F)cc1F [Compound I-83, N-[4-(difluoromethyl)-2-fluorophenyl]-2-{5-ethyl-6-[(1S,6S)-5-(5-hydroxy-6-methylpyrimidine-4-carbonyl)-2,5-diazabicyclo[4.2.0]octan-2-yl]-2-(2-methoxypyridin-4-yl)-7-oxo-2H,4H,7H-[1,2,3]triazolo[4,5-b]pyridin-4-yl}acetamide]
– | 7.30 to 8.30 | ≥ 6.30 | CCc1c(N2CCN(C(=O)c3ncnc(C)c3O)[C@H]3CC[C@@H]32)c(=O)c2nn(-c3ccnc(C)c3)nc2n1CC(=O)NC12CC(C3CC3)(C1)C2 [Compound I-84, N-{3-cyclopropylbicyclo[1.1.1]pentan-1-yl}-2-{5-ethyl-6-[(1S,6S)-5-(5-hydroxy-6-methylpyrimidine-4-carbonyl)-2,5-diazabicyclo[4.2.0]octan-2-yl]-2-(2-methylpyridin-4-yl)-7-oxo-2H,4H,7H-[1,2,3]triazolo[4,5-b]pyridin-4-yl}acetamide]
≥ 6.30 | 7.30 to 8.30 | – | CCc1c(N2CCN(C(=O)c3ncnc(C)c3O)[C@H]3CC[C@@H]32)c(=O)c2nn(-c3ccnc(OC)c3)nc2n1CC(=O)NC1(C)CC2(CCC2)C1 [Compound I-87, 2-{5-ethyl-6-[(1S,6S)-5-(5-hydroxy-6-methylpyrimidine-4-carbonyl)-2,5-diazabicyclo[4.2.0]octan-2-yl]-2-(2-methoxypyridin-4-yl)-7-oxo-2H,4H,7H-[1,2,3]triazolo[4,5-b]pyridin-4-yl}-N-{2-methylspiro[3.3]heptan-2-yl}acetamide]
